{"source": "patent US6503929B1", "about": "“Nitrate salt of anti-ulcer medicine” (Nicox S.A., priority 1998, dated 2003)", "key": {"rats [1]": {"test_system": "rats", "assay": "Anti-ulcer activity: gastric lesions produced by absolute ethyl alcohol (Robert et al. model)", "assay_type": "in vivo, rat", "details": "rats on empty stomach, oral dose 15 minutes before absolute ethyl alcohol (1 ml), sacrificed one hour later, cimetidine 50 mg/Kg, cimetidine nitrate 62,5 mg/Kg, ranitidine 50 mg/Kg, ranitidine nitrate 60 mg/Kg", "protocol": "Anti-ulcer activity is evaluated according to the experimental model described in the paper of A. Robert e Al. “Cytoprotection by prostaglandins in rats. Prevention of gastric necrosis produced by alcohol, HCl, NaOH, hypertonic NaCl and thermal injury” 77, 433-43 1979. To 5 groups of 10 rats each, kept on empty stomach since the previous night, 15 minutes before the supply of absolute ethyl alcohol (1 ml), by oral way are supplied: 5 ml/Kg of carboxymethylcellulose aqueous suspension 2%. 50 mg/Kg of cimetidine in 5 ml/Kg of carboxymethylcellulose aqueous suspension 2%. 62,5 mg/Kg of cimetidine nitrate (corresponding to 50 mg/Kg of cimetidine) in 5 ml/Kg of carboxymethylcellulose aqueous suspension 2%. 50 mg/Kg of ranitidine in 5 ml/Kg of carboxymethylcellulose aqueous suspension 2%. 60 mg/Kg of ranitidine nitrate (corresponding to […]) in 5 ml/Kg of carboxymethylcellulose aqueous suspension 2%. A hour later the animals are sacrificed and the gastric lesion incidence is evaluated."}, "rats [2]": {"test_system": "rats", "details": "rat, in vivo, po, 100 mg/kg"}}, "note": "Structures can show the parent of a compound that is named as a salt.", "data": [{"molecule": "CN/C(=N/CCSCc1nc[nH]c1C)NC#N", "note": "[Cimetidine, cimetidine, reference compound]", "values": [{"measurement": "Gastric Damage %", "setting": "rats [1]", "value": 100, "unit": "%"}]}, {"molecule": "CNC(=C[N+](=O)[O-])NCCSCc1ccc(CN(C)C)o1", "note": "[Ranitidine, ranitidine, reference compound]", "values": [{"measurement": "Gastric Damage %", "setting": "rats [1]", "value": 80, "unit": "%"}]}, {"molecule": "CNC(=C[N+](=O)[O-])NCCSCc1ccc(CN(C)C)o1", "note": "[Ranitidine.HNO3, ranitidine mononitrate salt]", "values": [{"measurement": "toxic symptom presence", "setting": "rats [2]", "value": "In no one of the group animals the toxic symthom presence was noted"}, {"measurement": "Gastric Damage %", "setting": "rats [1]; mononitrate salt", "value": 40, "unit": "%"}]}, {"molecule": "cimetidine mononitrate salt [Cimetidine.HNO3]", "values": [{"measurement": "Gastric Damage %", "setting": "rats [1]", "value": 50, "unit": "%"}]}]}
